Source: doi:10.1101/2021.12.13.472388v3 (biorxiv, 2022)

Assays:
BRD4-BDI = BRD4-BDI (Homo sapiens, UniProt O60885); assay: HTRF peptide displacement; type: binding; conditions: 6 h, room temperature
TRIM33 = target: T1, TRIM33 (Homo sapiens, UniProt Q9UPN9); assay: BROMOscan competition binding; conditions: single dose 1 μM; unreliable (may be per cent of control, direction unclear)
T1 sequence (Q9UPN9 882-1087 limits assumed): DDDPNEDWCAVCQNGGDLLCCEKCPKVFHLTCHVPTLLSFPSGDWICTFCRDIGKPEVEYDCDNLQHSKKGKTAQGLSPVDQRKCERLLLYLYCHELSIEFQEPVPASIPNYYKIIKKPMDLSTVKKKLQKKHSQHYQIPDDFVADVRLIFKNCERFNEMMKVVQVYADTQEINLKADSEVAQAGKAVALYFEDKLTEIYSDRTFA

CECR2 = CECR2 (Homo sapiens, UniProt Q9BXF3); assay: BROMOscan competition binding; conditions: single dose 1 μM; unreliable (may be per cent of control, direction unclear)
K-562 = assay: cells; set-up: species or system MOLM-14, CCRF-CEM, NB4; conditions: Homo sapiens, K562, 72 h, read-out: Cells viability EC50 K-562 (µM)
NB4 = assay: cells; set-up: species or system MOLM-14, CCRF-CEM, K-562; conditions: Homo sapiens, NB-4, 72 h, read-out: Cells viability EC50 NB4 (µM)

Structure (SMILES)	IC50 (BRD4-BDI)	also measured
Cc1ccc(-c2c(C)noc2C)cc1S(=O)(=O)Nc1cccc(C)c1C [compound 2]	11 ± 0.9 µM	
CCc1cccc(C)c1NS(=O)(=O)c1cc(-c2c(C)noc2C)ccc1C [compound 3]	9.3 ± 0.8 µM	
Cc1cc(F)ccc1NS(=O)(=O)c1cc(-c2c(C)noc2C)ccc1C [compound 4]	7.4 ± 0.5 µM	
COc1cc(C(=O)C(=Cc2ccncc2)c2nc3ccccc3o2)cc(OC)c1OC [compound 5]	4.3 ± 0.2 µM	

These reach a lower IC50 (BRD4-BDI). Values come first.

IC50 (BRD4-BDI)	Structure (SMILES)	also measured
4 ± 0.5 µM	CC(=O)N1CCc2c(sc3nc(SCC(=O)Nc4cc(Cl)ccc4C)n(Cc4ccco4)c(=O)c23)C1 [compound 1]	
1.1 ± 0.1 µM	O=C1c2ccc(Oc3cccc(Oc4ccc5c(c4)C(=O)N(c4ccc(O)cc4)C5=O)c3)cc2C(=O)N1c1ccc(O)cc1 [compound 7]	
1.3 µM	CC(=O)N1CCc2c(sc3nc(SCC(=O)Nc4cccnc4C)n(Cc4ccco4)c(=O)c23)C1 [compound 34, 2-((7-Acetyl-3-(furan-2-ylmethyl)-4-oxo-3,4,5,6,7,8-hexahydropyrido[4’,3’:4,5]thieno[2,3-d]pyrimidin-2-yl)thio)-N-(2-methylpyridin-3-yl)acetamide]	% inhibition at 1 μM (TRIM33): 52%; % inhibition at 1 μM (CECR2): 54%; EC50 (K-562): > 25 µM; EC50 (NB4): > 25 µM
